Tests used:
[1] = tested on: H3K9 acetylation in HEK293 cells; experiment: Western blot of histone acetylation in HEK293 nuclear extracts: H3K9; format: cell-based, human
Procedure: The effect of diacetyl on histone acetylation was further investigated using direct analysis of histone 3K9 acetylation in HEK cells. In vivo activity of diacetyl was determined by gel electrophoresis chromatography of HEK cell lysate exposed to 0 μM, 1 μM and 10 μM of diacetyl (odor 1) in whole HEK cell lysates. […] Proliferating cell nuclear antigen (PCNA; 29 kDa) is a nuclear protein included as a loading control for nuclear protein extracts.
In order to test whether diacetyl can increase acetylation of histones in vivo, human HEK293 cells were used, which offer a tractable system to prepare nuclear extracts. The cells were exposed to different doses of diacetyl for 2 or 6 hours, and monitored histone acetylation levels by Western blot analysis from nuclear extract. […] The acetylation levels of H3K14 and H4K5 were not affected (FIG. 5A).
Human embryonic kidney 293 (HEK293) cells were grown in 100 mm cell culture dishes with Dulbecco's modified Eagle's medium (DMEM) (10-013, Corning, Manassas, Va.), supplemented with 10% fetal bovine serum (FBS) (26140-079, Gibco, Carlsbad, Calif.) at 37° C. with 5% CO2. Cells that were ˜80% confluent were treated with freshly-prepared medium supplemented with diacetyl at concentrations indicated. In order to prevent diffusion of diacetyl odor from the treatment dishes to the outside environment, the cell culture dishes were put into a custom-made container (155.6×155.6×85.7 mm) with a charcoal filter top. The cells for non-treatment controls were handled in the same manner without adding diacetyl to the medium.
Nuclear extracts of HEK293 cells were prepared according to a protocol described previously (Andrews and Faller, 1991), with minor modifications. In brief, HEK293 cells were washed twice with cold phosphate-buffered saline (PBS) and lysed with hypotonic buffer (10 mM HEPES-KOH [pH 7.9], 1.5 mM MgCl2, 10 mM KCl, protease inhibitor cocktail [Roche], 1 mM DTT, 1 mM TSA). Following a brief centrifugation, the pellet was resuspended in hypertonic buffer (20 mM HEPES-KOH [pH 7.9], 25% glycerol, 420 mM NaCl 1.5 mM MgCl2, 0.2 mM EDTA, protease inhibitor cocktail (04693159001, Roche, Indianapolis, Ind.), 1 mM DTT, 1 mM TSA). The supernatant was recovered as nuclear extract.
Proteins in the nuclear extracts (60 μg protein) were separated by SDS-PAGE gels (456-1043, Bio-Rad, Hercules, Calif.), transferred onto PVDF membranes (162-0174, Bio-Rad), and incubated with anti-histone antibodies: acetylated H3K9 (1/2000: ab4441, abeam, Cambridge, Mass.), acetylated H3K14 (1/5000: 06-911, EMD Millipore, Billerica, Mass.), acetylated H4K5 (1/2000: 07-327, EMD Millipore). Bound antibody was detected by horseradish peroxidase-conjugated anti-rabbit secondary antibody (1/20000: 1705046, Bio-Rad) and developed using Clarity™ Western ECL Substrate (1705060, Bio-Rad). Signals were detected and captured by ImageQuant™ LAS 4000 mini (GE healthcare, Pittsburgh, Pa.), and band intensities were quantified with ImageJ software. H3K9 acetylation intensity in individual lanes was reported relative to the normalized Mock treatment (Mock H3K9ace/Mock PCNA), and calculated using this formula: Relative H3K9ace intensity for each timepoint=(Diacetyl H3K9ace/diacetyl PCNA)/(Mock H3K9ace/Mock PCNA).

human HDAC1 = molecular target: T1, human HDAC1 (Homo sapiens, UniProt Q13547); experiment: Fluorometric HDAC activity assay, purified human HDAC1; format: biochemical
T1 construct: purchased Cayman Chemical 10011563
Procedure: The ability of diacetyl (odor 1) to inhibit human HDAC activity was investigated using in-vitro assays with a human HDAC1 kit.
In order to directly test whether diacetyl acts as an inhibitor of HDACs, in vitro acetylation assays was performed with purified human HDACs. […]
HDAC activity of class I HDACs (HDAC1, 2, 3 and 8) was measured with the fluorometric HDAC Activity Assay kit: HDAC1 (10011563, Cayman Chemical, Ann Arbor, Mich.), HDAC2, HDAC 3 and HDAC 8 (50062, 50073 and 50068, BPS Bioscience, San Diego, Calif.), according to the manufacturer's instructions.

T1 sequence (Q13547 whole entry): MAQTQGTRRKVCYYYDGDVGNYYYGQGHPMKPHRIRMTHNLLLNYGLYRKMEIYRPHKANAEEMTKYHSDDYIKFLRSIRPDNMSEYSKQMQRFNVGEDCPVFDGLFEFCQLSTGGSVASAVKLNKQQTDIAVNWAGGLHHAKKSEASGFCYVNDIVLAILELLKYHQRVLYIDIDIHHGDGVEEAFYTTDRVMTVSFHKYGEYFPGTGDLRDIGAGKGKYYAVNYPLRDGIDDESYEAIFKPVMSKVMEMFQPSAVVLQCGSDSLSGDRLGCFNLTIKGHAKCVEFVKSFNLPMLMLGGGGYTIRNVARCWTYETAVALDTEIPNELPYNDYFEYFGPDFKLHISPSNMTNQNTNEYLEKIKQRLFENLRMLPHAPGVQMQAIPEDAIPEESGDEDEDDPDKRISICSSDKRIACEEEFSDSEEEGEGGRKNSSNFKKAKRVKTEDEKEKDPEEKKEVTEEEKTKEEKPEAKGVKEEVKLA

In the case of `CC(=O)C(C)=O` [diacetyl, 2,3-Butanedione], the H3K9 acetylation level ([1]; 100 μM, 120 hrs) is reported as “significantly higher levels”, the H3K9 acetylation level ([1]; 100 μM, prolonged exposure 3-5 days, onset) is reported as “increased only after 96 hrs” and the H3K9 acetylation level ([1]; 1 mM, 2 or 6 hours) is reported as “did not alter”. The H3K9 acetylation level ([1]; 10 mM, 2 hours, vs mock) was “significantly increased”, the H3K9 acetylation level ([1]; 10 mM, 6 hours) was “further increased” and the “level of acetyl H3K9 (H3K9Ace)” value ([1]; HEK cells, 0 μM, 1 μM and 10 μM, FIG. 1D) was “increased with increasing concentrations”. The “inhibition of human HDAC activity (human HDAC1 kit)” value (human HDAC1; compared with sodium butyrate, FIG. 1C) was “effective HDAC inhibitor and comparable to sodium butyrate” and the IC50 (human HDAC1; purified human HDAC1, n=4-5) was 7.2 mM.

Source: US10537535B2, “Histone deacetylase inhibitors” (The Regents of the University of California, priority 2015, dated 2020)
